# Biological target: T1, recombinant human mPGES-1 (Homo sapiens, UniProt O14684)
# T1 construct: made in house; host or cells: Rosetta E. coli (membrane/microsome fraction)
# T1 sequence (O14684 1-152): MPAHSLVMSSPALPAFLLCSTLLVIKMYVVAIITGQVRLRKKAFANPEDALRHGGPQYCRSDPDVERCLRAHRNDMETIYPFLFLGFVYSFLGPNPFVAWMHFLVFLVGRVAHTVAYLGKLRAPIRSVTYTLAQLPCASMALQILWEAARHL
# Test: mPGES-1 HTRF assay (inhibition of PGE2 formation from PGH2)
# Assay type: biochemical
# Settings: not given
# Protocol: The basis of the assay used is to measure the inhibition of microsomal prostaglandin E2 synthase-1 (mPGES-1) dependent prostaglandin (PG) E2 formation from PGH2 by different compounds. Thus, the formation of PGE2 is used as signal and a lowering of this signal can be interpreted as inhibition of mPGES-1. […] Microsomes from Rosetta E. coli bacteria expressing recombinant human mPGES-1 can be derived as described below: Inoculate 5 ml LB with Amp and Chloro with bacteria from freeze culture. Incubate over night at 37° C. with 200 rpm. Thereafter, inoculate 500-800 ml LB containing Amp and Chloro with the 5 ml on culture and grow to OD640 of 0.6-0.8. Chill the culture to +4° C. before induction. Induce the culture with IPTG at a final concentration of 400 μM. Express the protein at room temp 18-23° C. with 200 rpm shaking over night. The following steps can be performed on the following day: • 1. Spin down the cells in 250 ml centrifuge flasks for 15 min at 7000 rpm • 2. Dissolve the pellet from 250 ml culture in 12.5 ml homogenization buffer • 3. Disintegrate the cells by sonication, 4×10 seconds at 35% amplitude • 4. Add 2.5 ml MgCl2 (100 mM) and DNase 12.5 μl (0.8 mg/ml) and incubate on ice for 30 min • 5. Spin down the bacteria debris and save the supernatant, 7000 rpm for 15 min • 6. Isolate the protein containing membranes in the supernatant by ultracentrifugation 45000×g for 1 hour. • 7. Discard the supernatant and dissolve the pellet in 20 mM KPi buffer and aliquot the enzyme and store aliquots at −80° C. Before each experiment is performed an aliquot of the enzyme is thawed and it can then be dissolved in 0.1 M KPi pH 7.4 buffer containing 2.5 mM GSH. 50 μl of this enzyme solution is subsequently dispensed in a 384-well plate at room temperature. 0.5 μl of the inhibitor dissolved in DMSO is thereafter added to each well and incubated for 25 minutes at room temperature. Subsequently, 2 μl of PGH2 dissolved in an appropriate solvent is added to each well and after one minute at room temperature, the acidified stop solution containing FeCl2 is added. 4 μl of the total volume is transferred to a separate plate and diluted 750-fold in two separate steps before quantification of PGE2. In order to quantitate the amount of PGE2 that has been formed, a homogenous time resolved fluorescent (HTRF) detection of PGE2 can be performed by the use of a commercially available kit from CisBio essentially according to the manufacturer's protocol. […] The sealing film is thereafter removed from the NC wells. • 5 μl Eu3+-cryptate labeled anti-PGE2 can now be added to rows 1 to 24 by using a Multidrop. • The plate can now be covered with sealing film. • The plate can now be centrifuge at 1200 rpm for 1 minute and place at 4° C. overnight. After the over night incubation the fluorescence is measured by the use of an appropriate microplate reader. […] The extent of the specific HTRF is measured as a ratio of the emission intensity at 665 nm vs. that at 620 nm. A standard curve using synthetic PGE2 is used to quantify the amount of PGE2 in unknown samples. The degree of inhibition can be calculated as percent inhibition by dividing the amount of PGE2 formed in unknown samples by the amount of PGE2 formed in control samples.
row,Structure (SMILES),inhibition at 10 µM [%]
1,"CC(=O)NC(C)c1ccc(Cl)c(Nc2nc3cc(C(=O)Nc4ccc(Br)cc4)ccc3n2C)c1 (stereo not drawn) [Example 1, 2-[5-(1-Acetamidoethyl)-2-chlorophenylamino]-N-(4-bromophenyl)-1-methylbenzimidazole-5-carboxamide]",100

# Same assay, conditions: compound concentration of 10 μM, HTRF assay
row,Structure (SMILES),% inhibition [%]
1,"Cn1c(Nc2cc(CNC(=O)C3(C)CCCCC3)ccc2Cl)nc2cc(Cl)c(NC(=O)C3CCCC3)cc21 [Example 6, N-{4-chloro-3-[5-chloro-6-(cyclopentylamido)-1-methyl-2-benzimidazolylamino]benzyl}-1-methylcyclohexylamide]",100

# Same assay, conditions: compound concentration of 10 μM, HTRF assay; read-out: % inhibition
row,inhibition at 10 µM [%],Structure (SMILES)
1,100,"CC1(C(=O)NCc2ccc(Cl)c(Nc3nc4ccc(C(=O)NC5CCCC5)cc4[nH]3)c2)CCCCC1 [Example 13, 2-{2-Chloro-5-[(1-methylcyclohexylamido)methyl]phenylamino}-N-cyclopentylbenzimidazole-5-carboxamide]"
2,100,"Cn1c(Nc2cc(CNC(=O)C3(C)CCCCC3)ccc2Cl)nc2cc(C(=O)NC3CCCC3)ccc21 [Example 14, 2-{2-Chloro-5-[(1-methylcyclohexylamido)methyl]phenylamino}-N-cyclopentyl-1-methylbenzimidazole-5-carboxamide]"
3,80,"Cn1c(Nc2cc(CNC(=O)C3(C)CCCCC3)ccc2Cl)nc2cc(C(=O)NCC3CCCCC3)ccc21 [Example 16, 2-{2-Chloro-5-[(1-methylcyclohexylamido)methyl]phenylamino}-N-cyclohexylmethyl-1-methylbenzimidazole-5-carboxamide]"
4,95,"Cn1c(Nc2cc(CNC(=O)C3(C)CCCCC3)ccc2Cl)nc2cc(C(=O)NCCN3CCCCC3)ccc21 [Example 17, 2-{2-Chloro-5-[(1-methylcyclohexylamido)methyl]phenylamino]-1-methyl-N-[2-(1-piperidinyl)ethyl]benzimidazole-5-carboxamide]"
5,98,"Cn1c(Nc2cc(CNC(=O)C3(C)CCCCC3)ccc2Cl)nc2cc(C(=O)NCC3CCCO3)ccc21 (stereo not drawn) [Example 18, 2-{2-Chloro-5-[(1-methylcyclohexylamido)methyl]phenylamino]-1-methyl-N-[(2-tetrahydrofuryl)methyl]benzimidazole-5-carboxamide]"
6,98,"CN1CCCCC1CNC(=O)c1ccc2c(c1)nc(Nc1cc(CNC(=O)C3(C)CCCCC3)ccc1Cl)n2C (stereo not drawn) [Example 19, 2-{2-Chloro-5-[(1-methylcyclohexylamido)methyl]phenylamino]-1-methyl-N-[(1-methyl-2-piperidinyl)methyl]benzimidazole-5-carboxamide]"
7,100,"Cn1c(Nc2cc(CNC(=O)C3(C)CCCCC3)ccc2Cl)nc2cc(C(=O)NCc3ccccn3)ccc21 [Example 20, 2-{2-Chloro-5-[(1-methylcyclohexylamido)methyl]phenylamino}-1-methyl-N-(2-pyridinylmethyl)benzimidazole-5-carboxamide]"
8,100,"Cn1c(Nc2cc(CNC(=O)C3(C)CCCCC3)ccc2Cl)nc2cc(C(=O)Nc3ccc(Br)cc3)ccc21 [Example 21, N-(4-Bromophenyl)-2-{2-chloro-5-[(1-methylcyclohexylamido)methyl]-phenylamino}-1-methylbenzimidazole-5-carboxamide]"
9,98,"CN(C(=O)c1ccc2c(c1)nc(Nc1cc(CNC(=O)C3(C)CCCCC3)ccc1Cl)n2C)C1CCCC1 [Example 22, 2-{2-Chloro-5-[(1-methylcyclohexylamido)methyl]phenylamino}-N-cyclopentyl-N,1-dimethylbenzimidazole-5-carboxamide]"
10,100,"CC1(C(=O)NCc2ccc(Cl)c(Nc3nc4cc(C(=O)NC5CCCC5)c(Cl)cc4n3C3CCCC3)c2)CCCCC1 [Example 23, 6-Chloro-2-{2-chloro-5-[(1-methylcyclohexylamido)methyl]phenylamino}-N,1-dicyclopentylbenzimidazole-5-carboxamide]"
11,97,"CC1(C(=O)NCc2ccc(Cl)c(Nc3nc4cc(Cl)c(C(=O)NC5CCCC5)cc4[nH]3)c2)CCCCC1 [Example 24, 6-Chloro-2-{2-chloro-5-[(1-methylcyclohexylamido)methyl]phenylamino}-N-cyclopentylbenzimidazole-5-carboxamide]"
12,99,"Cn1c(Nc2cc(CNC(=O)C3(C)CCCCC3)ccc2Cl)nc2cc(Cl)c(NC(=O)c3ccc(Br)cc3)cc21 [Example 25, 4-Bromo-N-(5-chloro-2-{2-chloro-5-[(1-methylcyclohexylamido)methyl]phenylamino}-1-methyl-6-benzimidazolyl)benzamide]"

# The next lines start with the compound.
row,Structure (SMILES),inhibition at 10 µM [%]
1,"Cn1c(Nc2cc(CNC(=O)C3(C)CCCCC3)ccc2Cl)nc2cc(C(=O)NC3CCCC3)c(Cl)cc21 [Example 3, 6-Chloro-2-{2-chloro-5-[(1-methylcyclohexylamido)methyl]phenylamino}-N-cyclopentyl-1-methylbenzimidazole-5-carboxamide]",100
2,"CC1(C(=O)NCc2ccc(Cl)c(Nc3nc4cc(C(=O)N5CCCC5)ccc4[nH]3)c2)CCCCC1 [Example 4, N-{4-Chloro-3-[5-(1-pyrrolidinylcarbonyl)-2-benzimidazolylamino]benzyl}-1-methylcyclohexylamide]",83
3,"Cn1c(Nc2cc(CNC(=O)C3(C)CCCCC3)ccc2Cl)nc2cc(Cl)c(NC(=O)OC(C)(C)C)cc21 [Example 5, tert-Butyl 5-chloro-2-{2-chloro-5-[(1-methylcyclohexylamido)methyl]phenylamino}-1-methyl-6-benzimidazolylcarbamate]",100
4,"Cn1c(Nc2cc(CNC(=O)C3(C)CCCCC3)ccc2Cl)nc2cc(S(=O)(=O)NC3CCCC3)ccc21 [Example 7, N-{4-Chloro-3-[5-(N-cyclopentylsulfamoyl)-1-methyl-2-benzimidazolylamino]benzyl}-1-methylcyclohexylamide]",98
5,"Cn1c(Nc2cc(CNC(=O)C3(C)CC3)ccc2Cl)nc2cc(C(=O)NCC3CCCCC3)ccc21 [Example 8, 2-{2-Chloro-5-[(1-methylcyclopropylamido)methyl]phenylamino}-N-cyclohexylmethyl-1-methylbenzimidazole-5-carboxamide]",98
6,"Cn1c(Nc2cc(CNS(=O)(=O)c3cccs3)ccc2Cl)nc2cc(C(=O)NCC3CCCCC3)ccc21 [Example 9, 2-{2-Chloro-5-[(2-thienylsulfonamido)methyl]phenylamino}-N-cyclohexylmethyl-1-methylbenzimidazole-5-carboxamide]",98
7,Cn1c(Nc2cc(CNC(=O)C3(C)CC3)ccc2Cl)nc2cc(C(=O)Nc3ccc(Br)cc3)ccc21 [Example 10],100
8,"Cn1c(Nc2cc(CNC(=O)C3(C(F)(F)F)CC3)ccc2Cl)nc2cc(C(=O)NCC3CC3)ccc21 [Example 11, 2-{2-chloro-5-[(1-trifluoromethylcyclopropylamido)methyl]phenylamino}-N-cyclopropylmethyl-1-methylbenzimidazole-5-carboxamide]",100
9,"Cn1c(Nc2cc(CNC(=O)C3(C)CCCCC3)ccc2Cl)nc2cc(C(=O)N3CCCC3)ccc21 [Example 12, N-{4-Chloro-3-[1-methyl-5-(1-pyrrolidinylcarbonyl)-2-benzimidazolylamino]benzyl}-1-methylcyclohexylamide]",100
10,"Cn1c(Nc2cc(CNC(=O)C3(C)CCCCC3)ccc2Cl)nc2cc(C(=O)NCCOC(C)(C)C)ccc21 [Example 15, N-(2-tert-Butoxyethyl)-2-{2-chloro-5-[(1-methylcyclohexylamido)methyl]phenylamino}-1-methylbenzimidazole-5-carboxamide]",99

# Reference: patent publication US8921405B2, “Compounds” (Orexo AB, priority 2009, dated 2014)
